Data: ChEMBL document CHEMBL3627633, “Synthesis of potent urease inhibitors based on disulfide scaffold and their molecular docking studies” (Bioorg Med Chem, 2015)
The source made the active and inactive calls. No cut-off for these calls is given here.

How the values were obtained:
[1] = biological target: Cholinesterase (Equus caballus) (UniProt P81908); assay: Inhibition of equine serum butyrylcholinesterase using […] as substrate preincubated for 15 mins followed by substrate addition measured every 1 min by Ellman's method
Sequence of Cholinesterase (Equus caballus) (P81908 whole entry): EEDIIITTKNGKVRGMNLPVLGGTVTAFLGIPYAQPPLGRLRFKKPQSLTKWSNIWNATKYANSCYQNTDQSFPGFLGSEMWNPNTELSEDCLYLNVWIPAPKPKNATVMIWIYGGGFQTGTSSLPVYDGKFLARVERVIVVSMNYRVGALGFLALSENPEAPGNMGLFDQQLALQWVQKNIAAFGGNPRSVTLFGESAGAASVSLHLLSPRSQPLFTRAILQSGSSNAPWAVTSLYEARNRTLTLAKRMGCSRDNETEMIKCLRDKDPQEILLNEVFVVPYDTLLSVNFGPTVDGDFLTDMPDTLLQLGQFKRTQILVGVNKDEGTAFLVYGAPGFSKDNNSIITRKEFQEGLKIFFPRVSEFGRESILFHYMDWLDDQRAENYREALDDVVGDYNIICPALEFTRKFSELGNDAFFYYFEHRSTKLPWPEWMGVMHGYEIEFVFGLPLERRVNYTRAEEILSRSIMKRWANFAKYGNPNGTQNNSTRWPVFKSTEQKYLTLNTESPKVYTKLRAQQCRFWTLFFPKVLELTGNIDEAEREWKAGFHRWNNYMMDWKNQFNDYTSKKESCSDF

[2] = Cytotoxicity against mouse 3T3L1 cells assessed as cell viability at 1 to 20 ug/ml after 48 hrs by MTT assay; assay type: cell-based; details: 3t3-l1, 48 h
[3] = biological target: Urease (Canavalia ensiformis, UniProt P07374); assay: Inhibition of jack bean urease using urea as substrate assessed as ammonia production incubated for 15 mins by indophenol method
Sequence of Urease (P07374 whole entry): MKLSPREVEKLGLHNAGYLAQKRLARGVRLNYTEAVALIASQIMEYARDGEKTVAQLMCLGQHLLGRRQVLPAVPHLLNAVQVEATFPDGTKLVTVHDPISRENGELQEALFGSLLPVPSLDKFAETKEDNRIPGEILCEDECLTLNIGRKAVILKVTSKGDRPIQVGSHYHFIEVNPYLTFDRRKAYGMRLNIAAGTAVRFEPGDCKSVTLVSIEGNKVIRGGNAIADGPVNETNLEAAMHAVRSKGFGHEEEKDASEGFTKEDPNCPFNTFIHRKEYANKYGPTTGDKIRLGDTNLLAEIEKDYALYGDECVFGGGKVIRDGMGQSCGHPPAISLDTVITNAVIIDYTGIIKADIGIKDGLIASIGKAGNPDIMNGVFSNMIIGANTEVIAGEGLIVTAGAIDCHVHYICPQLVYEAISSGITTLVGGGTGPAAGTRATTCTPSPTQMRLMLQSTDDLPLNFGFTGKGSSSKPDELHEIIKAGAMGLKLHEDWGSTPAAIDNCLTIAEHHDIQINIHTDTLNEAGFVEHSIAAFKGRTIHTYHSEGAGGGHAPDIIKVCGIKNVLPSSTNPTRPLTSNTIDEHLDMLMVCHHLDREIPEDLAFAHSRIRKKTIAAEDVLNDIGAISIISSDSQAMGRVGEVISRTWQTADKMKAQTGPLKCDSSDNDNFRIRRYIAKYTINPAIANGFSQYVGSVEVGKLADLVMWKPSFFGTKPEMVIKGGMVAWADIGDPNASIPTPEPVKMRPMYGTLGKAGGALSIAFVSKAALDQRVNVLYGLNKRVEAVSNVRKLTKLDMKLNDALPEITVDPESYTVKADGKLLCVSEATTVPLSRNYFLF

[4] = system: Serpentes; assay: Inhibition of snake venom NPP1 using bis(p-nitrophenyl)phosphate as substrate assessed as p-nitrophenol release preincubated for 30 mins by spectrophotometry
[5] = biological target: Carbonic anhydrase (Homo sapiens) (UniProt P00918+P43166+P00915+P07451+P23280+O43570+Q9ULX7+Q16790+P22748+Q8N1Q1+Q9Y2D0+P35218); assay: Inhibition of carbonic anhydrase (unknown origin); assay type: protein assay
[6] = Cytotoxicity against Wistar rat CC1 cells assessed as cell viability at 1 to 20 ug/ml after 48 hrs by MTT assay; assay type: cell-based; details: cc-1, 48 h

| SMILES | inhibition [1] | Activity [2] | IC50 [3] | inhibition [4] | inhibition [5] | Activity [6] |
| --- | --- | --- | --- | --- | --- | --- |
| S=C(Nc1ccc(Cl)cc1)Nc1ccccc1SSc1ccccc1NC(=S)Nc1ccc(Cl)cc1 | inactive | Non-toxic | 1.6 µM | inactive | inactive | Non-toxic |
| S=C(Nc1ccc(Cl)c(Cl)c1)Nc1ccccc1SSc1ccccc1NC(=S)Nc1ccc(Cl)c(Cl)c1 | inactive | Non-toxic | 3.2 µM | inactive | inactive | Non-toxic |
| COc1ccccc1NC(=S)Nc1ccccc1SSc1ccccc1NC(=S)Nc1ccccc1OC | inactive | Non-toxic | 1.7 µM | inactive | inactive | Non-toxic |
| Cc1ccccc1NC(=S)Nc1ccccc1SSc1ccccc1NC(=S)Nc1ccccc1C | inactive | Non-toxic | 1.1 µM | inactive | inactive | Non-toxic |
| Fc1cccc(NC(=S)Nc2ccccc2SSc2ccccc2NC(=S)Nc2cccc(F)c2)c1 | inactive | Non-toxic | 1.5 µM | inactive | inactive | Non-toxic |
| S=C(Nc1ccccc1Br)Nc1ccccc1SSc1ccccc1NC(=S)Nc1ccccc1Br | inactive | Non-toxic | 18.6 µM | inactive | inactive | Non-toxic |
| Fc1ccc(NC(=S)Nc2ccccc2SSc2ccccc2NC(=S)Nc2ccc(F)cc2)cc1 | inactive | Non-toxic | 0.4 µM | inactive | inactive | Non-toxic |
| O=[N+]([O-])c1ccc(NC(=S)Nc2ccccc2SSc2ccccc2NC(=S)Nc2ccc([N+](=O)[O-])cc2)cc1 | inactive | Non-toxic | 6.4 µM | inactive | inactive | Non-toxic |
| Fc1ccccc1NC(=S)Nc1ccccc1SSc1ccccc1NC(=S)Nc1ccccc1F | inactive | Non-toxic | 0.7 µM | inactive | inactive | Non-toxic |
| S=C(Nc1ccc(Br)cc1)Nc1ccccc1SSc1ccccc1NC(=S)Nc1ccc(Br)cc1 | inactive | Non-toxic | 4.3 µM | inactive | inactive | Non-toxic |
| Cc1cccc(NC(=S)Nc2ccccc2SSc2ccccc2NC(=S)Nc2cccc(C)c2)c1 | inactive | Non-toxic | 3.7 µM | inactive | inactive | Non-toxic |
| FC(F)(F)c1ccc(NC(=S)Nc2ccccc2SSc2ccccc2NC(=S)Nc2ccc(C(F)(F)F)cc2)cc1 | inactive | Non-toxic | 1.5 µM | inactive | inactive | Non-toxic |
| NC(N)=S [THIOUREA] |  |  | 19.5 µM |  |  |  |
| S=C(Nc1ccccc1SSc1ccccc1NC(=S)NC12CC3CC(CC(C3)C1)C2)NC12CC3CC(CC(C3)C1)C2 | inactive | Non-toxic | 17.6 µM | inactive | inactive | Non-toxic |
| COc1cccc(NC(=S)Nc2ccccc2SSc2ccccc2NC(=S)Nc2cccc(OC)c2)c1 | inactive | Non-toxic | 14.6 µM | inactive | inactive | Non-toxic |
| S=C(Nc1cccc(Br)c1)Nc1ccccc1SSc1ccccc1NC(=S)Nc1cccc(Br)c1 | inactive | Non-toxic | 10.3 µM | inactive | inactive | Non-toxic |
| Cc1ccc(NC(=S)Nc2ccccc2SSc2ccccc2NC(=S)Nc2ccc(C)cc2)cc1 | inactive | Non-toxic | 1.4 µM | inactive | inactive | Non-toxic |
| O=[N+]([O-])c1cccc(NC(=S)Nc2ccccc2SSc2ccccc2NC(=S)Nc2cccc([N+](=O)[O-])c2)c1 | inactive | Non-toxic | 12.3 µM | inactive | inactive | Non-toxic |
| S=C(Nc1ccccc1Cl)Nc1ccccc1SSc1ccccc1NC(=S)Nc1ccccc1Cl | inactive | Non-toxic | 3.4 µM | inactive | inactive | Non-toxic |
| S=C(Nc1ccccc1)Nc1ccccc1SSc1ccccc1NC(=S)Nc1ccccc1 | inactive | Non-toxic | 15.1 µM | inactive | inactive | Non-toxic |
| COc1ccc(NC(=S)Nc2ccccc2SSc2ccccc2NC(=S)Nc2ccc(OC)cc2)cc1 | inactive | Non-toxic | 4.2 µM | inactive | inactive | Non-toxic |
